Measurements reported in ChEMBL document CHEMBL3272121, “Hypolipidemic analogues of ethyl 4-benzyloxybenzoate” (J Med Chem, 1977).

Experiments:
[1] = test system: Rattus norvegicus; experiment: Hypolipidemic activity in CFY Sprague-Dawley rat assessed as serum cholesterol level at 0.25% dietary level administered for 7 days relative to control; type: functional
[2] = test system: Rattus norvegicus; experiment: Toxicity in CFY Sprague-Dawley rat assessed as body weight gain at 0.25% dietary level administered for 7 days relative to control; type: organism-based; conditions: in vivo, po, 168 h
[3] = test system: Rattus norvegicus; experiment: Toxicity in CFY Sprague-Dawley rat assessed as relative liver weight at 0.25% dietary level administered for 7 days relative to control; type: organism-based; conditions: in vivo, po, 168 h
[4] = test system: Rattus norvegicus; experiment: Hypolipidemic activity in CFY Sprague-Dawley rat assessed as serum triglyceride level at 0.25% dietary level administered for 7 days relative to control; type: functional
[5] = test system: Rattus norvegicus; experiment: Hypolipidemic activity in CFY Sprague-Dawley rat assessed as liver lipid per gm of liver at 0.25% dietary level administered for 7 days relative to control; type: functional

| Structure (SMILES) | Activity [1] [%] | Activity [2] [%] | Activity [3] [%] | Activity [4] [%] | Activity [5] [%] |
| --- | --- | --- | --- | --- | --- |
| CCOC(=O)CCc1ccc(OCc2ccccc2F)cc1 | -4 | 14 | 7 | -49 | – |
| CCOC(=O)c1ccc(OCc2ccccc2OC)cc1 | -13 | -10 | -2 | -42 | 7 |
| O=C(O)c1ccc(OCc2ccc(F)cc2)cc1 | -28 | -3 | 2 | -49 | 8 |
| CCOC(=O)Cc1ccc(OCc2cccc(OC)c2OC)cc1 | 1 | 12 | 20 | -25 | – |
| CCCc1ccc(OCc2ccc(C)cc2)c(OC)c1 | -13 | -18 | 33 | 216 | – |
| CCOC(=O)c1ccc(OCc2ccc(Cl)cc2)cc1 | -12 | -7 | 6 | -53 | 10 |
| Cc1ccc(COc2ccc(C#N)cc2)cc1 | -19 | -29 | 27 | -58 | 14 |
| O=Cc1ccc(OCc2ccc(F)cc2)cc1 | -15 | 16 | 15 | -59 | – |
| CC(C)OC(=O)c1ccc(OCc2ccccc2)cc1 | -10 | -4 | 13 | -40 | -5 |
| CCOC(=O)c1ccc(OCc2ccc(I)cc2)cc1 | -18 | 7 | 11 | -60 | 3 |
| CCOC(=O)c1ccc(COc2ccc(C(=O)OCC)cc2)cc1 | -11 | 3 | -2 | -60 | – |
| O=C([O-])c1ccc(OCc2ccccc2)cc1.[K+] | -20 | -12 | 0 | -57 | – |
| CCOC(=O)c1ccc(COc2ccc(C#N)cc2)cc1 | -12 | -46 | 20 | -21 | – |
| CCOC(=O)c1ccc(OCc2ccc(OC)c(OC)c2)cc1 | -1 | -20 | 11 | -33 | – |
| CCOC(=O)c1ccccc1OCc1ccccc1 | 0 | -26 | -2 | -15 | – |
| CCCCCCCCCCCCOC(=O)c1ccc(OCc2ccccc2)cc1 | -11 | -3 | 6 | -57 | – |
| CCOC(=O)c1ccc(OCc2ccccc2C)cc1 | -10 | -23 | 0 | -58 | – |
| CCOC(=O)c1ccc(OCc2ccc(OC)cc2)cc1 | -7 | -52 | 20 | -55 | – |
| Cc1ccc(OCc2ccccc2)cc1C | -3 | 24 | 13 | -62 | – |
| CCOC(=O)c1ccc(COc2ccc(Br)cc2)cc1 | -6 | 3 | 24 | -16 | – |

| Structure (SMILES) | Activity [1] [%] | Activity [2] [%] | Activity [3] [%] | Activity [4] [%] | Activity [5] [%] |
| --- | --- | --- | --- | --- | --- |
| CCOC(=O)Cc1ccc(OCc2ccccc2F)cc1 | -29 | -20 | -22 | -64 | -1 |
| CCOC(=O)c1ccc(OCc2cccc(OC)c2)cc1 | -10 | 2 | 4 | -32 | – |
| CCOC(=O)c1ccc(COc2ccccc2)cc1 | -25 | 8 | 26 | -38 | 3 |
| CCOC(=O)CCc1ccc(OCc2cccc(F)c2)cc1 | -11 | 12 | 7 | 57 | – |
| CCOC(=O)Cc1cccc(OCc2ccccc2OC)c1 | -16 | 17 | 34 | -13 | 9 |
| CCOC(=O)c1ccc(OCc2cccc(F)c2)cc1 | -19 | -1 | -4 | -60 | 1 |
| CCOC(=O)CCc1ccc(OCc2cccc(OC)c2OC)cc1 | 7 | 4 | 23 | -9 | – |
| CCCCCCOC(=O)c1ccc(OCc2ccccc2)cc1 | -9 | -3 | 8 | -64 | – |
| CCOCCOC(=O)c1ccc(OCc2ccccc2)cc1 | -17 | 10 | 10 | -51 | 0 |
| CCOC(=O)c1ccc(OCc2cccc(Cl)c2)cc1 | -19 | -1 | 10 | -6 | -2 |
| Cc1ccc(COc2ccc(C(=O)O)cc2)cc1 | -10 | -2 | 11 | -57 | – |
| O=C(NC1CCCCC1)c1ccc(OCc2ccccc2)cc1 | -5 | -21 | 5 | -18 | – |
| CCCCOC(=O)c1ccc(OCc2ccccc2)cc1 | -10 | -18 | 4 | -47 | – |
| O=C(O)c1ccc(OCc2ccc(Cl)c(Cl)c2)cc1 | -9 | 7 | 18 | -20 | – |
| NC(=O)c1ccc(OCc2ccccc2)cc1 | -1 | -2 | 13 | -63 | – |
| O=C(c1ccc(OCc2ccccc2)cc1)N1CCCCC1 | 14 | -67 | 2 | 10 | – |
| O=C(Oc1ccccc1)c1ccc(OCc2ccccc2)cc1 | 0 | -1 | 0 | -18 | – |
| CCOC(=O)c1ccc(COc2ccc(OC)cc2)cc1 | 4 | -19 | -4 | -57 | – |
| CCOC(=O)c1ccc(COc2ccc(Cl)cc2)cc1 | -13 | -15 | 42 | 7 | – |
| CCCCCCCCCCCCc1ccc(OCc2ccccc2)cc1 | 2 | 9 | 8 | -37 | – |

| Structure (SMILES) | Activity [1] [%] | Activity [2] [%] | Activity [3] [%] | Activity [4] [%] | Activity [5] [%] |
| --- | --- | --- | --- | --- | --- |
| CCCCCCCCCCCCNC(=O)c1ccc(OCc2ccccc2)cc1 | 1 | 2 | -5 | -11 | – |
| CCOC(=O)CCCc1ccc(OCc2ccccc2)cc1 | -10 | -57 | 9 | -59 | – |
| CCCCCCCCCCOC(=O)c1ccc(OCc2ccccc2)cc1 | -9 | -17 | 13 | -64 | – |
| O=C(OC1CCCC1)c1ccc(OCc2ccccc2)cc1 | -14 | -4 | -14 | -29 | – |
| CCOC(=O)c1cccc(OCc2ccccc2)c1 | 4 | 4 | 6 | -30 | – |
| N#Cc1ccc(OCc2ccccc2)cc1 | 7 | -14 | 8 | -31 | – |
| OCc1ccc(OCc2ccccc2)cc1 | -3 | 11 | 15 | -45 | – |
| CCOC(=O)c1ccc(COc2ccc(C)cc2C)cc1 | 3 | 0 | 0 | 2 | – |
| CCOC(=O)c1ccc(COc2ccc(C)c(C)c2)cc1 | 3 | -1 | 10 | 109 | – |
| COc1cc(C(C)=O)ccc1OCc1ccccc1 | 5 | -37 | 13 | -51 | – |
| O=C([O-])c1ccc(OCc2ccccc2)cc1.O=C([O-])c1ccc(OCc2ccccc2)cc1.[Ca+2] | -8 | -12 | 0 | -53 | – |
| CCOC(=O)c1ccc(COc2ccc(F)cc2)cc1 | -14 | 16 | 19 | -50 | – |
| COc1ccccc1COc1ccc(C(=O)O)cc1 | -29 | 3 | 17 | 71 | – |
| CCOC(=O)c1ccc(OCc2ccc([N+](=O)[O-])cc2)cc1 | -12 | -15 | -2 | -28 | – |
| CCOC(=O)c1ccc(OCc2ccccc2Cl)cc1 | -7 | -16 | 7 | -46 | – |
| COc1cc(C(=O)O)ccc1OCc1ccccc1 | 0 | 15 | 6 | -28 | – |
| CCOC(=O)c1ccc(OCc2ccc(Cl)c(Cl)c2)cc1 | -7 | -5 | 10 | 5 | – |
| CC(=O)c1ccc(OCc2ccccc2)cc1 | 9 | -11 | -6 | -46 | – |
